Data: the Kinase Knowledgebase extract (Sharma et al. 2016)

Molecular target: MAPK14 (human) (UniProt Q16539)
Assay: Enzyme Assay

Sequence of MAPK14 (human) (Q16539 whole entry, looked up): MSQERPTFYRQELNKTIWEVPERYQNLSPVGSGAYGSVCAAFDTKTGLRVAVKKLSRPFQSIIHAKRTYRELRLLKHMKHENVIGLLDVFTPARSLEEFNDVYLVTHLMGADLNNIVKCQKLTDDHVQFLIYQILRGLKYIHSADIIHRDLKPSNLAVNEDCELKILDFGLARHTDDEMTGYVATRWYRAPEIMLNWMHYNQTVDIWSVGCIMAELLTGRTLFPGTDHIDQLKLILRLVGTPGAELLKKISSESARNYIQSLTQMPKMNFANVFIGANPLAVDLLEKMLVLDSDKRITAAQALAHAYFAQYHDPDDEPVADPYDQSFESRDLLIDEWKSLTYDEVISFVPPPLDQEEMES

SMILES | IC50
Cc1ccc(-n2nc(C(C)(C)C)cc2NC(=O)N[C@H]2CC[C@@H](Oc3ccc4nnc(N5CCCCCC5)n4c3)c3ccccc32)cc1 | < 10 nM
Cc1ccc(-n2nc(C(C)(C)C)cc2NC(=O)N[C@H]2CC[C@@H](Oc3ccc4nnc(N5CCCN(C)CC5)n4c3)c3ccccc32)cc1 | < 10 nM
Cc1ccc(-n2nc(C(C)(C)C)cc2NC(=O)N[C@H]2CC[C@@H](Oc3ccc4nnc(N(C)CCN(C)C)n4c3)c3ccccc32)cc1 | < 10 nM
Cc1ccc(-n2nc(C(C)(C)C)cc2NC(=O)N[C@H]2CC[C@@H](Oc3ccc4nnc([C@@H]5CCCN5)n4c3)c3ccccc32)cc1 | < 10 nM
Cc1ccc(-n2nc(C(C)(C)C)cc2NC(=O)N[C@H]2CC[C@@H](Oc3ccc4nnc(C5CN(C)CCN5C)n4c3)c3ccccc32)cc1 (some centres undefined) | < 10 nM
C[C@H]1CCCCN1c1nnc2ccc(O[C@@H]3CC[C@H](NC(=O)Nc4cc(C(C)(C)C)nn4-c4cccc(CCN(C)C)c4)c4ccccc43)cn12 | < 10 nM
Cc1ccc(-n2nc(C(C)(C)C)cc2NC(=O)N[C@H]2CC[C@@H](Oc3ccc4nnc(N5CCC[C@H](O)C5)n4c3)c3ccccc32)cc1 | < 10 nM
Cc1ccc(-n2nc(C(C)(C)C)cc2NC(=O)N[C@H]2CC[C@@H](Oc3cc(C)c4nnc([C@@H]5CCCN5C)n4c3)c3ccccc32)cc1 | < 10 nM
C[C@H]1CCCCN1c1nnc2ccc(O[C@@H]3CC[C@H](NC(=O)Nc4cc(C(C)(C)C)nn4CCO)c4ccccc43)cn12 | < 10 nM
Cc1ccc(-n2nc(C(C)(C)C)cc2NC(=O)N[C@H]2CC[C@@H](Oc3ccc4nnc(N5CCCC[C@H]5C)n4c3)c3ccccc32)cc1 | < 10 nM

More lines, now with the values ahead:

IC50 | SMILES
< 10 nM | C[C@@H]1CCC[C@H](C)N1c1nnc2ccc(O[C@@H]3CC[C@H](NC(=O)Nc4cc(C(C)(C)C)nn4-c4cnn(CCN5CCOCC5)c4)c4ccccc43)cn12
< 10 nM | Cc1ccc(-n2nc(C(C)(C)C)cc2NC(=O)N[C@H]2CC[C@@H](Oc3ccc4nnc(CCN5CCN(C)CC5)n4c3)c3ccccc32)cc1
< 10 nM | CN(C)CCCn1cc(-n2nc(C(C)(C)C)cc2NC(=O)N[C@H]2CC[C@@H](Oc3ccc4nnc(N5CCCCC5)n4c3)c3ccccc32)cn1
< 10 nM | Cc1ccc(-n2nc(C(C)(C)C)cc2NC(=O)N[C@H]2CC[C@@H](Oc3ccc4nnc(C(C)(C)N5CCCC5)n4c3)c3ccccc32)cc1
< 10 nM | CCN(C)CCc1cccc(-n2nc(C(C)(C)C)cc2NC(=O)N[C@H]2CC[C@@H](Oc3ccc4nnc(N5CCCC[C@@H]5C)n4c3)c3ccccc32)c1
< 10 nM | CN(C)CCOc1cccc(-n2nc(C(C)(C)C)cc2NC(=O)N[C@H]2CC[C@@H](Oc3ccc4nnc(N5CC6CCC(C6)C5)n4c3)c3ccccc32)c1
< 10 nM | C[C@@H]1CCC[C@H](C)N1c1nnc2ccc(O[C@@H]3CC[C@H](NC(=O)Nc4cc(C(C)(C)C)nn4-c4cccc(OCCN(C)C)c4)c4ccccc43)cn12
< 10 nM | C[C@H]1CCCCN1c1nnc2ccc(O[C@@H]3CC[C@H](NC(=O)Nc4cc(C(C)(C)C)nn4-c4ccc(CN5CCOCC5)cc4)c4ccccc43)cn12
< 10 nM | C[C@H]1CCCCN1c1nnc2ccc(O[C@@H]3CC[C@H](NC(=O)Nc4cc(C(C)(C)C)nn4-c4cccc(OCCN5CCOCC5)c4)c4ccccc43)cn12
< 10 nM | C[C@H]1CCCCN1c1nnc2ccc(O[C@@H]3CC[C@H](NC(=O)Nc4cc(C(C)(C)C)nn4-c4cccc(OCCN5CCCC5)c4)c4ccccc43)cn12
< 10 nM | Cc1ccc(-n2nc(C(C)(C)C)cc2NC(=O)N[C@H]2CC[C@@H](Oc3ccc4nnc([C@@H]5CCCN5CCCO)n4c3)c3ccccc32)cc1
< 10 nM | Cc1ccc(-n2nc(C(C)(C)C)cc2NC(=O)N[C@H]2CC[C@@H](Oc3ccc4nnc(-c5ccc(CN6CCOCC6)cc5)n4c3)c3ccccc32)cc1
< 10 nM | C[C@H]1CCCCN1c1nnc2ccc(O[C@@H]3CC[C@H](NC(=O)Nc4cc(C(C)(C)C)nn4-c4cccc(OCCN(C)C)c4)c4ccccc43)cn12
< 10 nM | C[C@H]1CCCCN1c1nnc2ccc(O[C@@H]3CC[C@H](NC(=O)Nc4cc(C(C)(C)C)nn4-c4cccc(CN5CCN(C)CC5)c4)c4ccccc43)cn12
